Values of other authors in patent US20260272898A1 (Bayer Aktiengesellschaft, priority 2024, published 2026).

Settings: in vivo

- half-life: short
SMILES: CCOc1ncc(C)c2c1[C@H](c1ccc(C#N)cc1OC)C(C(N)=O)=C(C)N2 [finerenone, (4S)-4-(4-cyano-2-methoxyphenyl)-5-ethoxy-2,8-dimethyl-1,4-dihydro-1,6-naphthyridine-3-carboxamide]
